Reference: US7622469B2, “2,4-diamino-1,3,5-triazine derivatives” (Hamari Chemicals, Ltd., priority 2002, dated 2009)
In brackets after ≈: the same amount, converted by molar mass.

Assays:
MRSA 97-115 [1] = test: Antibacterial activity test (MIC); type: cell-based, methicillin-resistant Staphylococcus aureus; conditions: Mueller-Hinton Broth, 37° C., 20 to 24 hours
Experimental: (§1) Regarding compounds obtained in respective Working Examples, in order to investigate antibacterial activity, minimal inhibitory concentration (MIC) was determined according to a standard method of Japanese Society of Chemotherapy.
(§2) As a test bacterium, nine kinds of S. aureus 209PJC, MRSA 97-115, MRSA KM 97-53, MRSA KM97-108, VRE 49, E. coli NIHJ JC-2, P. aeruginosa PAO-1, P. aeruginosa No. 12, P. aeruginosa KM97-5 were used and, as a medium, Mueller-Hinton Broth (DIFCO) was used. One platinum loop of a test bacterium was inoculated into 20 ml of a medium, and static culture was carried out at 37° C. for 16 to 20 hours, and then each bacterium species was diluted with a sterilized physiological saline to 10^5/ml, which was used as a test bacterium solution.
(§3) Then, each compound was dissolved in methanol, subjected to ½ stepwise dilution with a medium to prepare a medium for measuring sensitivity, and each 2 ml was dispensed into a test tube. A compound concentration in a medium was adjusted to 100 μg/ml and its 2^n-fold (n=−10 to 1).
(§4) Numerical values in Tables represent MIC expressed in μg/ml unit.

E. coli NIHJ JC-2 [2] = test: Antibacterial activity test (MIC); type: cell-based; conditions: Mueller-Hinton Broth, 37° C., 20 to 24 hours
Experimental: as §1, §2, §3, §4

P. aeruginosa PAO-1 [3] = test: Antibacterial activity test (MIC); type: cell-based; conditions: Mueller-Hinton Broth, 37° C., 20 to 24 hours
Experimental: as §1, §2, §3, §4

S. aureus 209PJC [4] = test: Antibacterial activity test (MIC); type: cell-based; conditions: Mueller-Hinton Broth, 37° C., 20 to 24 hours
Experimental: as §1, §2, §3, §4

E. coli NIHJ JC-2 [5] = test: Bactericidal activity test (MBC, phenol coefficient measuring method); type: cell-based
Experimental: (§5) As a test bacterium, the same bacteria species as those of the antibacterial activity test were used; as a medium to be used, a SCD medium (manufactured by Eiken Chemical Co., Ltd.) was used for pre-culture medium; and a heart infusion bouillon medium (manufactured by Eiken Chemical Co., Ltd.) was used as a medium for growing a live bacterium in a test solution after bactericidal treatment. One platinum loop of a test bacterium was inoculated into 20 ml of a medium, and static culture was carried out at 37° C. for 18 to 20 hours, and the cells were adjusted with a sterilized physiological saline to 1×10^7/ml, which was used as a test bacterium solution.
(§6) Then, a solution of each compound in methanol was subjected to ½ stepwise dilution with sterilized water, each 5 ml was dispensed into a test tube, 0.5 ml of the previously prepared test bacterium solution was added thereto, and the mixture was blended well. After 1 minute, 3 minutes and 5 minutes has passed, 5 μl of the test solution was collected and inoculated into 2 ml of a heart infusion bouillon medium, this was cultured at 37° C. for 40 to 48 hours, and the presence or absence of growth of a bacterium was determined. A test was performed three times, a minimum concentration at which growth of a bacterium was not recognized two or more times was adopted as a minimal bactericidal concentration (MBC value).
(§7) Numerical values in Tables represent MBC expressed in μg/ml unit.

P. aeruginosa PAO-1 [6] = test: as above; type: cell-based
Experimental: as §5, §6, §7

S. aureus 209PJC [7] = test: as above; type: cell-based
Experimental: as §5, §6, §7

MRSA 97-115 [8] = test: as above; type: cell-based, methicillin-resistant Staphylococcus aureus
Experimental: as §5, §6, §7

SMILES	minimal inhibitory concentration (MIC) (MRSA 97-115 [1]) [µg/mL]	minimal inhibitory concentration (MIC) (E. coli NIHJ JC-2 [2]) [µg/mL]	minimal inhibitory concentration (MIC) (P. aeruginosa PAO-1 [3]) [µg/mL]	minimal inhibitory concentration (MIC) (S. aureus 209PJC [4]) [µg/mL]	minimal bactericidal concentration (MBC) (E. coli NIHJ JC-2 [5]; 1 min) [µg/mL]	minimal bactericidal concentration (MBC) (E. coli NIHJ JC-2 [5]; 3 min) [µg/mL]	minimal bactericidal concentration (MBC) (E. coli NIHJ JC-2 [5]; 5 min) [µg/mL]	minimal bactericidal concentration (MBC) (P. aeruginosa PAO-1 [6]; 1 min) [µg/mL]	minimal bactericidal concentration (MBC) (P. aeruginosa PAO-1 [6]; 3 min) [µg/mL]	minimal bactericidal concentration (MBC) (P. aeruginosa PAO-1 [6]; 5 min) [µg/mL]	minimal bactericidal concentration (MBC) (S. aureus 209PJC [7]; 1 min) [µg/mL]	minimal bactericidal concentration (MBC) (S. aureus 209PJC [7]; 3 min) [µg/mL]	minimal bactericidal concentration (MBC) (S. aureus 209PJC [7]; 5 min) [µg/mL]	minimal bactericidal concentration (MBC) (MRSA 97-115 [8]; 1 min) [µg/mL]	minimal bactericidal concentration (MBC) (MRSA 97-115 [8]; 3 min) [µg/mL]	minimal bactericidal concentration (MBC) (MRSA 97-115 [8]; 5 min) [µg/mL]
CCCCCCCCCCCCC1N=C(N)NC(NCCc2ccc(OC)cc2)=N1.Cl (racemic) [15(1)]	1.6	25	50	0.4	6.3	3.1	1.6	6.3	3.1	3.1	12.5	3.1	3.1	25	12.5	6.3
CCCCCCCCCCCC1N=C(N)NC(NCc2ccccc2)=N1.Cl (racemic) [43(1)]	0.8	6.3	25	0.4	12.5	6.3	3.1	3.1	3.1	3.1	25	6.3	6.3	50	25	12.5
CCCCCCCCCCNC1=NC(C)(C)N=C(NCc2ccc(OC)cc2)N1.CS(=O)(=O)O [38(2)]	0.8	25	100	0.4	6.3	3.1	3.1	6.3	3.1	1.6	12.5	6.3	3.1	25	12.5	12.5
CCCCCCCCCCNC1=NC(C)(C)N=C(NCc2ccccc2)N1.CS(=O)(=O)O [compound 2]	0.8			0.4	6.3	3.1	3.1	3.1	1.6	1.6	12.5	6.3	3.1	25	12.5	6.3
CCCCCCCCCCNC1=NC(C)(C)N=C(NCCc2ccc(OC)cc2)N1.Cl [compound 4]	0.8	50	50	0.4	3.1	1.6	1.6	3.1	3.1	1.6	50	12.5	6.3	25	6.3	6.3
CCCCCCCCCC1N=C(N)N=C(N)N1c1ccc(C(C)(C)C)cc1.Cl (stereo not drawn) [compound 22]	0.8	25	25	0.8	6.3	6.3	6.3	12.5	3.1	3.1	12.5	6.3	6.3	25	25	12.5
CC(=O)O.CCCCCCCCNC1=NC(C)(C)N=C(NCCCCCCCC)N1 [compound 66]	1.6	100	>100	0.8												
CC(=O)O.CCCCCCCCNC1=NC(C)(C)N=C(NCCCCCCC)N1 [compound 67]	1.6	100	100	0.8												
CC(=O)O.CCCCCCCNC1=NC(C)(C)N=C(NCCCCCC)N1 [compound 70]	1.6	25	25	0.8												
CC(=O)O.CCCCCCCNC1=NC(C)(C)N=C(NC(C)(C)CC(C)(C)C)N1 [compound 71]	0.8	100	100	0.8												
CC(=O)O.CCCCCCCCCCCCNC1=NC(C)(C)N=C(NCC)N1 [compound 73]	1.6	12.5	50	0.8												
CC(=O)O.CCCCCCCCNC1=NCN=C(NCCCCCCCC)N1 [compound 74]	0.8	12.5	100	0.8												
CCCCCCCCCCCCNC1=NC(C)(C)N=C(N)N1.O=[N+]([O-])O [compound 75]	3.1	25	50	0.8												
CCCCCCCCNC1=NC(C)(C)N=C(NCCCCCC)N1.O=C(O)C(O)C(O)C(O)C(O)CO [compound 76]	1.6	25	50	0.8												
CC(=O)O.CCCCCCCCCCCCNC1=NC(C)(C)N=C(NCc2ccco2)N1 [compound 79]	1.6	50	100	0.8												
CCCCCCCCCCCCNC1=NC(C)(C)N=C(NCc2ccc(S(N)(=O)=O)cc2)N1 [compound 80]	1.6 (≈ 3.34 µM)	>100	>100	0.4 (≈ 0.836 µM)												
CCCCCCCCNC1=NC(C)(C)N(c2cnc3ccccc3c2)C(N)=N1.Cl.Cl [compound 81]	1.6	12.5	50	0.8												
